The values below come from US20100279941A1, “CD36 MODULATION AND USES THEREOF” (priority 2009, published 2010).

Numbered stars: 1 amine (or outer) side, 2 acyl side, 3 side chain; on linkers, the order of the positions; unused ones are H or OH. Square brackets hold non-standard residues; d marks the D form. Peptide text beside a SMILES is read from it. azaPhe = O=C(N(Cc1ccccc1)N[*:1])[*:2]; azaPro = O=C(N1CCCN1[*:1])[*:2]

Common to all, as to type: in vivo
Assay [1] relates to CD36^+/+ and CD36^−/− mice. Kind of assay: Area at risk and infarct size after 30-min LCAL and 48 hours reperfusion (Evans blue/TTC). The source says:
Animals. CD36^−/− mice were generated by targeted homologous recombination and backcrossed six times to C57BI/6. Wild-type control littermates (CD36^+/+) were bred from the same cross and were therefore of identical genetic background [Febbraio et al., 2000]. Male mice, aged 23 (±1) weeks, were used for experiments. They were fed standard chow (#5075, Charles Rivers, Saint-Constant, Québec, Canada) and water ad libitum, and housed singly during treatment periods (2 or 10 weeks). Daily pharmacological treatments with 300 μg/kg of EP 80317 or CP1A(IV) or vehicle (0.9% NaCl) were done by subcutaneous (s.c.) injections.
(§1) C57BU6 mice were bred in house. Male mice, aged 23 (±1) weeks, were used for experiments. They were fed standard chow (#5075, Charles Rivers, Saint-Constant, Québec, Canada) and water ad libitum, and housed singly during treatment periods (2 weeks). Daily pharmacological treatments with 300 μg/kg (289 nmol/kg) of EP 80317 or 289 nmol/kg of CP-3(IV), 289 nmol/kg of CP-AP-4 or vehicle (0.9% NaCl) were done by subcutaneous (s.c.) injections.
(§2) Experimental model of IHD: Transient left coronary artery ligation in vivo. Mice were subjected to a transient LCAL surgery as described before, with minor modifications [Tarnayski et al., 2004]. Mice were injected i.p. with buprenorphine (0.05 mg/kg) and placed in an induction chamber with inhalation anesthesia comprised of 3% isoflurane mixed with 100% oxygen. Mice were intubated with a blunt ended 20-gauge catheter into the trachea via the mouth and mechanically ventilated at a tidal volume of 7 ml/kg at 130 respirations/min with a MiniVent™ mouse ventilator (model 845, Harvard Apparatus, Saint-Laurent, QC, Canada). Anesthesia was maintained with 1.5-2% isoflurane and the animals were kept warm using electrical heating pads during the surgical procedure. The chest was opened by a horizontal incision through the skin and muscle layers at the third intercostal space exposing the left side of the heart. […] Visual blanching distal to the coronary occlusion confirmed myocardial ischaemia. Lidocaine (6 mg/kg) was administered i.p. just following occlusion and prior to reperfusion. After 30 minutes, the PE10 tubing was removed allowing reperfusion. The lungs were reinflated and the chest wound closed layer by layer before extubation. At 6 hours following reperfusion, mice were anesthetized (isoflurane), a blood sample withdrawn, and the heart arrested in diastole by an intravenous injection of 1 M KCl (0.5 mL). Hearts were immediately frozen at −80° C. unless otherwise stated.
Evaluation of area at risk and infarct size. Two days after reperfusion, the left anterior descending (LAD) coronary artery was re-occluded at the original site and the abdominal aorta was injected retrogradly with 5% Evans blue dye to delineate the AAR by the absence of dark blue staining. The left ventricle, including the interventricular septum, was dissected and cut into transverse 1-mm slices from the apex to the base, using an acrylic matrix (Alto Inc., Hatfield, Pa., USA). The slices were incubated in 1% triphenyltetrazolium chloride solution at 37° C. for 15 min and placed in 10% neutral buffered formalin for 12 hours. Each slice was weighed and photographed on both sides with a digital camera (Nikon, Coolpix™ 4500, Mississauga, Ontario, Canada). The total LV area, AAR and IA were determined for each side of a slice by planimetric analysis using Adobe CS3 Photoshop™ software (Ottawa, ON, Canada), and averaged. The infarct weight was determined as follows: [(A1×WT1)+(A2×WT2)+(A3×WT3)+(A4×WT4) . . . ] where A and WT are the infarct area and weight of the section, respectively. The AAR weight was calculated in a similar manner, but by subtracting the blue (viable) stained zone from the weight. The results are expressed in terms of % IA/AAR, IA/LV and AAR/LV.

In assay [2] the test system is C57BL/6 mice. Kind of assay: Cardiac troponin I (cTnI) in plasma, ELISA. Conditions: 48 hours post-ischemia; 2 weeks 289 nmol/kg; compared to vehicle. How it is done: as §1
as §2, with “At 6 hours following reperfusion, mice were anesthetized (isoflurane), a blood sample withdrawn, and the heart arrested in diastole by an intravenous injection of 1 M KCl (0.5 mL).” left out
Cardiac troponin I (cTnI) concentrations in plasma. cTnI plasma levels were assayed using the High Sensitivity Mouse Cardiac Troponin-I ELISA Kit (Life Diagnostics, Inc., West Chester, Pa., Cat. No. 2010-1-HSP), according to the manufacturer's instructions.
On the technique in general: ELISA stands for enzyme-linked immunosorbent assay.

The test system of assay [3] is C57BL/6 mice. Description: Blood lactate after transient ischemia. The note with it: 6-hour reperfusion; 2 weeks 289 nmol/kg; P<0.05 compared to vehicle. On the procedure: as §1, §2
Blood lactate. Blood lactate was determined using the Lactate Pro Analyser (FaCT Canada Consulting Ltd, Quesnel, BC, Canada), according to the manufacturer's instructions.

On to `C[C@H](N)C(=O)N[C@H](Cc1c[nH]c2ccccc12)C(=O)N[C@@H](C)C(=O)NN(Cc1ccccc1)C(=O)N[C@H](Cc1ccccc1)C(=O)N[C@@H](CCCCN)C(N)=O` [CP-3(iv), Ala-D-Trp-Ala-AzaPhe-DPhe-Lys-NH2] (H-A[dW]A[azaPhe][dF]K-NH2), for which, in assay [1] (mouse, in vivo), the area-at-risk was 52 (±3) % and the “reduction of IA/LV ratios” value was found to be 56%. The “reduction of cardiac troponin I (cTnI) levels in plasma” value in the assay on C57BL/6 mice [2] is 42%. For the same compound, the “reduction of lactate concentration in blood” value in the assay with C57BL/6 mice [3] is given as 27%.
In the case of `C[C@H](N)C(=O)NN(Cc1ccccc1)C(=O)N[C@@H](C)C(=O)N[C@@H](Cc1c[nH]c2ccccc12)C(=O)N[C@H](Cc1ccccc1)C(=O)N[C@@H](CCCCN)C(N)=O` [CP1A(IV), Ala-AzaPhe-Ala-Trp-DPhe-Lys-NH2] (H-A[azaPhe]AW[dF]K-NH2), the “reduction of infarct area” value in assay [1] (2-week pretreatment, same drug regimen (300 μg/kg/d), CD36^+/+ mice, 48 hours reperfusion) is 49%.
For the compound `NCCCC[C@H](NC(=O)[C@@H](Cc1ccccc1)NC(=O)[C@H](Cc1c[nH]c2ccccc12)NC(=O)N1CCCN1C(=O)[C@@H](Cc1c[nH]c2ccccc12)NC(=O)[C@@H](N)Cc1cnc[nH]1)C(N)=O` [CP-AP-4, His-D-Trp-AzaPro-Trp-DPhe-Lys-NH2] (H-H[dW][azaPro]W[dF]K-NH2), in assay [1] (CD36^+/+ (C57BL/6) mice, 289 nmol/kg 2 weeks, 48 hours reperfusion, mean (±SE)), the area-at-risk is reported as 50 (±4) %. Further, the “reduction of IA/LV ratios” value in assay [1] (CD36^+/+ (C57BL/6) mice, 289 nmol/kg 2 weeks, 48 hours reperfusion, p<0.001 vs 0.9% NaCl) stood at 50%. For the same compound, the “reduction of cardiac troponin I (cTnI) levels in plasma” value in the assay on C57BL/6 mice [2] came to 54%. The “reduction of lactate concentration in blood” value in the assay on C57BL/6 mice [3] came to 32%.
